Assay results from ChEMBL document CHEMBL1124116 (J Med Chem, 1988).

target: T1, Cholesterol side-chain cleavage enzyme, mitochondrial (Bos taurus, UniProt P00189); details: read-out: I50
T1 sequence (P00189 whole entry): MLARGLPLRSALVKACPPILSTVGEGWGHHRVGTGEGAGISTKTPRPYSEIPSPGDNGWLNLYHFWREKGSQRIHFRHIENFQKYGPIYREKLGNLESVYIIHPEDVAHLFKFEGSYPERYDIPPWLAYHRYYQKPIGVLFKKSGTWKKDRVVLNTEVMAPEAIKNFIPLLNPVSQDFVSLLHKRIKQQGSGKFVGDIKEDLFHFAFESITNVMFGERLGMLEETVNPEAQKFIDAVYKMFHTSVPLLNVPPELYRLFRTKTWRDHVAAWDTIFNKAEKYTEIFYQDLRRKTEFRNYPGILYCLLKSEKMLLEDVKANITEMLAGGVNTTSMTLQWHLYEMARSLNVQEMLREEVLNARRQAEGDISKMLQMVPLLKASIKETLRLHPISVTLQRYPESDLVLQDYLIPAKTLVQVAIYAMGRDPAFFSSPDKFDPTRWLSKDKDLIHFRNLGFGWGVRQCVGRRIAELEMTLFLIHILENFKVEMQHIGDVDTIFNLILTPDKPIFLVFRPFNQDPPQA

| Structure (SMILES) | IC50 [µM] |
| --- | --- |
| CC(C)CN1C(=O)C2CC2(c2ccc(N)cc2)C1=O (stereo not drawn) | 310 |
| C=CCN1C(=O)C2CC2(c2ccc(N)cc2)C1=O (stereo not drawn) | 274 |
| C#CCN1C(=O)C2CC2(c2ccc(N)cc2)C1=O (stereo not drawn) | 292 |
| CCN1C(=O)C2CC2(c2ccc(N)cc2)C1=O (stereo not drawn) | 305 |
| CC(C)(C)CN1C(=O)C2CC2(c2ccc(N)cc2)C1=O (stereo not drawn) | 294 |
| CN1C(=O)C2CC2(c2ccc(N)cc2)C1=O (stereo not drawn) | 460 |

More lines, in order of falling IC50, values ahead:

| IC50 [µM] | Structure (SMILES) |
| --- | --- |
| 320 | CC(C)N1C(=O)C2CC2(c2ccc(N)cc2)C1=O (stereo not drawn) |
| 290 | Nc1ccc(C23CC2C(=O)N(Cc2ccccc2)C3=O)cc1 (stereo not drawn) |
